From US8735398B2 (Bristol-Myers Squibb Company, priority 2009, dated 2014)
Like-named read-outs stand apart in the source and are kept apart here.

System: HCV 1b genotype
Assay: HCV replicon assay (HCV-neo replicon cells, wild-type)
Format: cell-based, Hepatitis C virus
Conditions: HCV 1b genotype replicon
In short: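 HCV-neo replicon cells (wild-type) and replicon cells carrying NS5A resistance substitutions were treated with compounds; assay per O'Boyle et al. 2005, with luciferase-reporter read-out variants also used.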

[1] = class symbol, read-out: EC50 Range against HCV 1b
[2] = Hepatitis C virus, class symbols, read-out: EC50 Range against HCV 1b
[3] = Hepatitis C virus, class symbol, read-out: EC50 Range against HCV 1b
[4] = Hepatitis C virus, read-out: EC50 1b

Cn1ccnc1C(O)C(=O)N1CCC[C@H]1C(=O)Nc1ccc(-c2cnc(-c3ccc(NC(=O)[C@@H]4CCCN4C(=O)C(O)c4nccn4C)cc3)o2)cc1 (stereo partly drawn) [Example D-11, (2S,2′S)-N,N′-(4,4′-(oxazole-2,5-diyl)bis(4,1-phenylene))bis(1-(2-hydroxy-2-(1-methyl-1H-imidazol-2-yl)acetyl)pyrrolidine-2-carboxamide)]
EC50 [1]: 1000 to 10000 nM | EC50 (read-out: EC50 1b): 2090 nM

O=C(Nc1ccc(-c2cnc(-c3ccc(NC(=O)[C@@H]4C[C@@H](O)CN4C(=O)Cc4cccnc4)cc3)o2)cc1)[C@@H]1C[C@@H](O)CN1C(=O)Cc1cccnc1 [XY-45, (2S,4R,2′S,4′R)-N,N′-(1,3-oxazole-2,5-diyldi-4,1-phenylene)bis(4-hydroxy-1-(3-pyridinylacetyl)-2-pyrrolidinecarboxamide)]
EC50 [2]: 1000 to 10000 nM

CC(=O)N1CCC[C@H]1C(=O)Nc1ccc(-c2nc(-c3ccc(NC(=O)[C@@H]4C=CCN4C(=O)c4ccccc4)cc3)cs2)cc1 [Example D-53, (2S)-N-[4-[2-[4-[[[(2S)-1-acetyl-2-pyrrolidinyl]carbonyl]amino]phenyl]-4-thiazolyl]phenyl]-1-benzoyl-2,5-dihydro-1H-pyrrole-2-carboxamide]
EC50 [3]: 1000 to 10000 nM | EC50 [4]: 1130 nM

O=C(Nc1ccc(-c2nnc(-c3ccc(NC(=O)[C@@H]4CCCN4C(=O)C4CCC4)cc3)o2)cc1)[C@@H]1CCCN1C(=O)C1CCC1 [Example D-59, (2S,2′S)-N,N′-(1,3,4-oxadiazole-2,5-diyldi-4,1-phenylene)bis[1-(cyclobutylcarbonyl)-2-pyrrolidinecarboxamide]]
EC50 [3]: 1000 to 10000 nM | EC50 [4]: 5450 nM

CC(C)(C)O[C@@H]1C[C@@H](C(=O)Nc2ccc(-c3cnc(-c4ccc(NC(=O)[C@@H]5C[C@@H](OC(C)(C)C)CN5C(=O)c5cccs5)cc4)o3)cc2)N(C(=O)c2cccs2)C1 [XY-76, (2S,4R,2′S,4′R)-N,N′-(1,3-oxazole-2,5-diyldi-4,1-phenylene)bis(4-tert-butoxy-1-(2-thienylcarbonyl)-2-pyrrolidinecarboxamide)]
EC50 [2]: 1000 to 10000 nM

O=C(Nc1ccc(-c2cnc(-c3ccc(NC(=O)[C@@H]4C[C@@H](O)CN4C(=O)c4ccccc4)cc3)o2)cc1)[C@@H]1C[C@@H](O)CN1C(=O)c1ccccc1 [XY-56, (2S,4R,2′S,4′R)-N,N′-(1,3-oxazole-2,5-diyldi-4,1-phenylene)bis(1-benzoyl-4-hydroxy-2-pyrrolidinecarboxamide)]
EC50 [2]: 100 to 999 nM

O=C(Nc1ccc(-c2nnc(-c3ccc(NC(=O)C4CCCN4C(=O)Cc4ccccc4)cc3)o2)cc1)C1CCCN1C(=O)Cc1ccccc1 (stereo not shown) [RK-3, N,N′-(1,3,4-oxadiazole-2,5-diyldi-4,1-phenylene)bis(1-(phenylacetyl)-2-pyrrolidinecarboxamide)]
EC50 [3]: 100 to 999 nM

CCc1ccccc1C(=O)N1C[C@H](O)C[C@H]1C(=O)Nc1ccc(-c2cnc(-c3ccc(NC(=O)[C@@H]4C[C@@H](O)CN4C(=O)c4ccccc4CC)cc3)o2)cc1 [XY-47, (2S,4R,2′S,4′R)-N,N′-(1,3-oxazole-2,5-diyldi-4,1-phenylene)bis(1-(2-ethylbenzoyl)-4-hydroxy-2-pyrrolidinecarboxamide)]
EC50 [2]: 100 to 999 nM | EC50 [4]: 564 nM

O=C(Nc1ccc(-c2nnc(-c3ccc(NC(=O)[C@H]4CCCCN4C(=O)OCc4ccccc4)cc3)o2)cc1)[C@H]1CCCCN1C(=O)OCc1ccccc1 [RK-5, dibenzyl (2R,2′R)-2,2′-(1,3,4-oxadiazole-2,5-diylbis(4,1-phenylenecarbamoyl))di(1-piperidinecarboxylate)]
EC50 [3]: 1000 to 10000 nM

Cn1nc(-c2ccc(NC(=O)[C@@H]3CCCN3C(=O)Cc3ccccc3)cc2)cc1-c1ccc(NC(=O)[C@@H]2CCCN2C(=O)Cc2ccccc2)cc1 [FY-1, (2S,2′S)-N,N′-((1-methyl-1H-pyrazole-3,5-diyl)di-4,1-phenylene)bis(1-(phenylacetyl)-2-pyrrolidinecarboxamide)]
EC50 [3]: 100 to 999 nM

CC(O)(C(=O)N1C(C(=O)Nc2ccc(-c3cnc(-c4ccc(NC(=O)C5CC6CC6N5C(=O)C(C)(O)c5ccccc5)cc4)o3)cc2)CC2CC21)c1ccccc1 [CB-8, (1S,3S,5S,1′S,3′S,5′S)-N,N′-(1,3-oxazole-2,5-diyldi-4,1-phenylene)bis(2-((2S)-2-hydroxy-2-phenylpropanoyl)-2-azabicyclo[3.1.0]hexane-3-carboxamide)]
EC50 [1]: < 4.57 nM | EC50 (read-out: EC50 1b): < 5 nM
